From ChEMBL document CHEMBL1201862, “PubChem BioAssay data set” (2004)
Calls of active or inactive are those of the source.

Key:
[1] = A549 cell cytotoxicity, dose response, cytotoxicity control, plate reader, cherry-pick, antagonist series (AID 743412); type: functional, cell-based
[2] = control 3'UTR Renilla luciferase suppression, dose response, counter-screen for Shn3 inhibitor project, cell-based, Clone20-Shn3RL, cherry-picked (AID 624133); type: functional
[3] = HepG2 cell cytotoxicity, dose response, cytotoxicity control for Shn3 inhibitor project, CellTiter-Glo, cherry-picked (AID 624134); type: functional, cell-based
[4] = MC4R antagonists, dose response, counter-screen for LGR2 antagonist project, cell-based, plate reader, cherry pick (AID 743444); type: functional;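 further: transfected HEK 293 cells stimulated with alpha-MSH peptide; potency of inhibitors of the alpha-MSH evoked signal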
[5] = LGR2 antagonists, dose response, cell-based, HEK293, CRE-luciferase reporter, cherry pick, set 2 (AID 743343); type: functional;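 further: transfected cells were stimulated with diluted bursicon conditioned medium after compound addition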
[6] = HepG2 cell cytotoxicity, dose response, cytotoxicity control, plate reader, cherry-pick, antagonist series (AID 743416); type: functional, cell-based
Melanocortin receptor 4 = Melanocortin receptor 4 (Homo sapiens, UniProt P32245); test: MC4R antagonist potency on cAMP, dose response, cell-based, TR-FRET, biased antagonists (AID 602298); type: functional;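 further: antagonist potency against agonist-stimulated cAMP production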
[7] = cytotoxicity in HEK-293T cells, dose response, cytotoxicity control for BCR NF-kB inhibitor project, luminescence, B-cell screen hits (AID 489021); type: functional, cell-based;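 further: HEK-293T cells carrying an NF-kB luciferase reporter; cells exposed to compound for about 14 hours before viability readout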
[8] = nonselective inhibitors of cellular cAMP signaling, dose response, counter-screen for MC4R biased antagonist project, cell-based, TR-FRET cAMP detection (AID 602305); type: functional;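 further: U2OS cells stimulated with forskolin near its EC80 as the cAMP inducer; potency is for inhibition of forskolin-stimulated cAMP signaling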
[9] = Shn3 3'UTR reporter inhibitors, dose response, cell-based, Clone20 osteoblasts, firefly luciferase, cherry-picked (AID 624132); type: functional;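 further: firefly luciferase luminescence from reporter carrying the Shn3 3'UTR in osteoblasts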
[10] = microbe, parasite or virus in culture; type: functional; settings: Mycobacterium tuberculosis
[11] = growth suppression of beta-catenin-knockout colon cells, dose response, cell-based, HCT116, human colon tumor (AID 1045); type: functional;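 further: HCT116 colon tumor cells with beta catenin knocked out; cells exposed to compound for 60 hours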
[12] = growth suppression of PTEN-null colon cells, dose response, cell-based, HCT116 PTEN knockout (AID 1047); type: functional;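 further: HCT116 colon tumor cells with PTEN knocked out; cells exposed to compound for 60 hours before readout; potency for loss of cell viability measured by luminescence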
[13] = HEK293 cell cytotoxicity, dose response, cytotoxicity control, plate reader, cherry-picked samples (AID 743446); type: functional, cell-based
[14] = molecular target: T1, Endoribonuclease toxin MazF (Escherichia coli K-12, UniProt P0AE70); test: fluorescent RNA oligo signal without MazF, dose response, counter-screen for MazEF activator project, biochemical, fluorescence, single-stranded RNase substrate (AID 588502); type: functional
T1 sequence (P0AE70 whole entry): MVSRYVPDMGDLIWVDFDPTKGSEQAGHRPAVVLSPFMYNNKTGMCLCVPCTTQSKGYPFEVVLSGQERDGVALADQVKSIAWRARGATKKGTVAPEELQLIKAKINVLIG

CHO = test: cytotoxicity in TLR9-MyD88 CHO cells, dose response, cytotoxicity control for TLR9-MyD88 binding inhibitor project, cell-based, luminescence (AID 588339); type: functional, hamster; settings: Cricetulus griseus;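 further: CHO cells stably coexpressing TLR9 and MyD88 fusions from primary screen; compound exposure lasted 48 hours before viability readout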
[15] = A Cell Based Secondary Assay To Explore Cytotoxicity of Compounds that Sensitize Mycobacterium Tuberculosis to Beta-Lactam Antibiotics.; type: functional
[16] = molecular target: T1, Endoribonuclease toxin MazF; test: MazF toxin RNase activators, dose response, biochemical, fluorescence, single-stranded RNA substrate, uHTS hits (AID 588481); type: functional
Beta Lactamase = Beta Lactamase (Pseudomonas aeruginosa, UniProt Q932Y6); test: beta-lactamase reporter inhibitor potency, dose response, artefact control for TLR9-MyD88 binding inhibitor project, BLA reporter cells, FRET fluorescence (AID 588341); type: cell-based;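 further: cell based assay in CHO-K1 cells stably expressing beta-lactamase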
[17] = molecular target: Glycogen synthase kinase-3 alpha (Homo sapiens, UniProt P49840); test: Inhibition of Human GSK-3 alpha Activity Measured in Biochemical System Using Microfluidics - 2063-06_Inhibitor_Dose_DryPowder_Activity. [Related pubchem assays (depositor defined):AID2709]
[18] = molecular target: Glycogen synthase kinase-3 beta (Homo sapiens, UniProt P49841); test: Inhibition of Human GSK-3 beta Activity Measured in Biochemical System Using Microfluidics - 2063-05_Inhibitor_Dose_DryPowder_Activity. [Related pubchem assays (depositor defined):AID2709]
Genome polyprotein = Genome polyprotein (dengue virus type 2, UniProt P29990); test: Dengue-2 NS5 methyltransferase inhibitors, primary screen, biochemical, confirmation dose response (AID 588689); type: functional
Vero = Vero cell cytotoxicity, cytotoxicity control for flavivirus capping enzyme inhibitors (AID 588742); type: functional; settings: Chlorocebus sabaeus
[19] = molecular target: Multidrug resistance protein CDR2 (Candida albicans (strain SC5314 / ATCC MYA-2876) (Yeast), UniProt P78595); test: CaCDR2 efflux pump inhibitors in yeast, dose response, S. cerevisiae AD1-8u, singleplex, Cherry Pick1 hits (AID 588604); type: functional
DNA topoisomerase = DNA topoisomerase (Yersinia pestis, UniProt A0A2S9PM60); test: Y. pestis Topo-I inhibitors, cleavage product readout, dose response, biochemical, cherry-pick (AID 588525)
[20] = molecular target: Beta-2 adrenergic receptor (Homo sapiens, UniProt P07550); test: beta2AR agonists driving receptor internalization, dose response, cell-based, FAP fluorogen, flow cytometry, cherry pick 1 (AID 588763); type: functional
Sequence of Beta-2 adrenergic receptor (P07550 whole entry): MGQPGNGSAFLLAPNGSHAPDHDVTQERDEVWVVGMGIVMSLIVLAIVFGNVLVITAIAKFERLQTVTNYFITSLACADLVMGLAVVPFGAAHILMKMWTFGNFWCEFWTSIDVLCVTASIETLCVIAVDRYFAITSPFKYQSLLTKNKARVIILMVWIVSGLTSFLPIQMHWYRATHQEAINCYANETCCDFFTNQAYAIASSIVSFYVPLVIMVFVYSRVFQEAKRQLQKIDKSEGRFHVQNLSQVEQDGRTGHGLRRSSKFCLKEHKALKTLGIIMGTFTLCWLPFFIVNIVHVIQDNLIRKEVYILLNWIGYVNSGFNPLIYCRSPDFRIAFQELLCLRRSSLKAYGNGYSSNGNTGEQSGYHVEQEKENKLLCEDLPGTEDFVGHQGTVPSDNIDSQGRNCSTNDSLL

Sequence of Glycogen synthase kinase-3 alpha (P49840 whole entry): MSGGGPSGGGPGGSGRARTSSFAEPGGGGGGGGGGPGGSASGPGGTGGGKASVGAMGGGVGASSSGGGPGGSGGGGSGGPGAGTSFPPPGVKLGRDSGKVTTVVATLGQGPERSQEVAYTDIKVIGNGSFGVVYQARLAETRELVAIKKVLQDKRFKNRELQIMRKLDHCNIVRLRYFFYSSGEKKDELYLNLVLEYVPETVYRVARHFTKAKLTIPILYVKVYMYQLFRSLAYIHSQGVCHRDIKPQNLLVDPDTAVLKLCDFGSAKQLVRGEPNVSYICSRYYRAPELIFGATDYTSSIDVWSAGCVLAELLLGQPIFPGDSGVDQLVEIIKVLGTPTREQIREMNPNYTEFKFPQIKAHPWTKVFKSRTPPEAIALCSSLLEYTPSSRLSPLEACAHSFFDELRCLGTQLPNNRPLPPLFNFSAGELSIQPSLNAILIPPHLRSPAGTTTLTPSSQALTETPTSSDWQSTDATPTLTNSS
Sequence of DNA topoisomerase (A0A2S9PM60 whole entry): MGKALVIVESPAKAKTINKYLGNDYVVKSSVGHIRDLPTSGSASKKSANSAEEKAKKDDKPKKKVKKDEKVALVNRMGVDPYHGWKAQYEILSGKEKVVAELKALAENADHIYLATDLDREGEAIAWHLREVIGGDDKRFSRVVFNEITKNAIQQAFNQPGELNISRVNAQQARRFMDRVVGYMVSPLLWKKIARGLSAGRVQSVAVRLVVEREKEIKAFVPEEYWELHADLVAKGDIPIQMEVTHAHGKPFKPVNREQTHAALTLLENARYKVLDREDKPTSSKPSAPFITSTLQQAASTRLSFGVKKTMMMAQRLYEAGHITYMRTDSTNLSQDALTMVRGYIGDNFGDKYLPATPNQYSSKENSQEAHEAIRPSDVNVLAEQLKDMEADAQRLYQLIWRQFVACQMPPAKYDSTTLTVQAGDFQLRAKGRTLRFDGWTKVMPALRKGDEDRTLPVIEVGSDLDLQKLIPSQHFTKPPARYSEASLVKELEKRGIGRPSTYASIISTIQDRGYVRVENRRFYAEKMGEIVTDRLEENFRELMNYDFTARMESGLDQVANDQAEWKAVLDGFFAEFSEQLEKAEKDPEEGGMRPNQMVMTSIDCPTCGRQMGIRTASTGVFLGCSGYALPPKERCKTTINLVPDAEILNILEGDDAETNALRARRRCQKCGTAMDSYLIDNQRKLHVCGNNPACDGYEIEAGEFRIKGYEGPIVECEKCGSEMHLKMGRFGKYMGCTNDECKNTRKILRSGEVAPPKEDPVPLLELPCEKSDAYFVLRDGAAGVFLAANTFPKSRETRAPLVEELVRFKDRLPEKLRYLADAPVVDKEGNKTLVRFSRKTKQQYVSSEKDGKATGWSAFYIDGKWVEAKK
Sequence of Multidrug resistance protein CDR2 (P78595 whole entry): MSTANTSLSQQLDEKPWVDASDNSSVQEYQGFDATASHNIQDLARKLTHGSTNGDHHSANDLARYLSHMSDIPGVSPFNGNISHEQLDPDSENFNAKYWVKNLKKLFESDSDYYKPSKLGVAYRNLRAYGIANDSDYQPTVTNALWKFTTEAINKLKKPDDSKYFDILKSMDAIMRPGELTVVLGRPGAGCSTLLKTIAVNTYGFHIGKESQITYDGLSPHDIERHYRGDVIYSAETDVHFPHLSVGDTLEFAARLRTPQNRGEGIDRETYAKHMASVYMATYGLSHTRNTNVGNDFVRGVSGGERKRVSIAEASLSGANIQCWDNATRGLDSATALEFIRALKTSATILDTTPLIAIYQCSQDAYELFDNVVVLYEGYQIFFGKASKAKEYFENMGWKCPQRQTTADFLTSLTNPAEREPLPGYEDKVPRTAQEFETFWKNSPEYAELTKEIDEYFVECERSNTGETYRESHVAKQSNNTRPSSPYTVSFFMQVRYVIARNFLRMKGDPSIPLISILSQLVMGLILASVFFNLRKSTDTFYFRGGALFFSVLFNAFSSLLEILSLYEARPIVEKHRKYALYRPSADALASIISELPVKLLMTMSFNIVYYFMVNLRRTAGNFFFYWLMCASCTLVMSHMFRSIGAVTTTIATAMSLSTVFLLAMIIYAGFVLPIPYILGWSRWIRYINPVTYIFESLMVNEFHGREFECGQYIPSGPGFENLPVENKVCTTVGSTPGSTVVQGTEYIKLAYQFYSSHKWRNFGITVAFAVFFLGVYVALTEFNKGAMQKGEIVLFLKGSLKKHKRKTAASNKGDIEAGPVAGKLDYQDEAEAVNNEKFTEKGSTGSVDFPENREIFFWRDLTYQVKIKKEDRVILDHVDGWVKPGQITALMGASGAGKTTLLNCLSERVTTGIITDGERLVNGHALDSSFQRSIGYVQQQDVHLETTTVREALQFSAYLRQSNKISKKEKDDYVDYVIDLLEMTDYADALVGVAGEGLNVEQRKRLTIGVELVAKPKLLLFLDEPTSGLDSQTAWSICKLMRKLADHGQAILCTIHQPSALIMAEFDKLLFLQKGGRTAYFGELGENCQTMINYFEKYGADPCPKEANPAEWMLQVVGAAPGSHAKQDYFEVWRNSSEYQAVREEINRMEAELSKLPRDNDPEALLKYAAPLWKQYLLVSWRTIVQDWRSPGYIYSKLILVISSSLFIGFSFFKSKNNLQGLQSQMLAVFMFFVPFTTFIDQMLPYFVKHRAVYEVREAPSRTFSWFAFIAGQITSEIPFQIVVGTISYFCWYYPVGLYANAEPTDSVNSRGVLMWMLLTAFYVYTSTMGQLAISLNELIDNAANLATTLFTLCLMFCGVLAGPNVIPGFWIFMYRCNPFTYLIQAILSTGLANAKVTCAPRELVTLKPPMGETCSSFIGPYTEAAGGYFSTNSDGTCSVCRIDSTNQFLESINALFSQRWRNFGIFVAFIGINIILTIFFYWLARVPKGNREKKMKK
Sequence of Genome polyprotein (P29990 2492-3391 limits assumed): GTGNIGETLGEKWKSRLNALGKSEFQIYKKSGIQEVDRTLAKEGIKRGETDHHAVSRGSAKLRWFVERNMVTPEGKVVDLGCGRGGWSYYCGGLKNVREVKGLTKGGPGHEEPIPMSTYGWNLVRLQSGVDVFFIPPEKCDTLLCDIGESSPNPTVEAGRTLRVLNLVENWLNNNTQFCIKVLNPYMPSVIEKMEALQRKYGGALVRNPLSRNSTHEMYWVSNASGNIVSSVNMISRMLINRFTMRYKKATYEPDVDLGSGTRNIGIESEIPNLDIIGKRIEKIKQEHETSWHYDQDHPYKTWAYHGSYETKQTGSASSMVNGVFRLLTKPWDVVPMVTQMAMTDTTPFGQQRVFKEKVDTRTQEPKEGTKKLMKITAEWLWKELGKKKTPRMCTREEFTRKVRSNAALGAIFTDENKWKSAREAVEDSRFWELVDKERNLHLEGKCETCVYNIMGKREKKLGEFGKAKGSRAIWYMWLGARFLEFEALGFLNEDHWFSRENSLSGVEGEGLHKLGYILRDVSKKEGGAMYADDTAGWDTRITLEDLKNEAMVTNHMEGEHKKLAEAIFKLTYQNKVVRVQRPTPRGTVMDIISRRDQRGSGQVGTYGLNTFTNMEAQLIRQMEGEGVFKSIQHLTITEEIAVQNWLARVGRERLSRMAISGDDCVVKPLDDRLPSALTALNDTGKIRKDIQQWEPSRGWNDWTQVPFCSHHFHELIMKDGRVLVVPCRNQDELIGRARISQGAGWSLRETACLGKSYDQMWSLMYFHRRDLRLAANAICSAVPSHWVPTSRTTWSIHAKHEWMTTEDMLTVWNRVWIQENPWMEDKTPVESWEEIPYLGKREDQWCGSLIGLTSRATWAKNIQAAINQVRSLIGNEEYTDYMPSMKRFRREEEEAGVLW
Sequence of Melanocortin receptor 4 (P32245 whole entry): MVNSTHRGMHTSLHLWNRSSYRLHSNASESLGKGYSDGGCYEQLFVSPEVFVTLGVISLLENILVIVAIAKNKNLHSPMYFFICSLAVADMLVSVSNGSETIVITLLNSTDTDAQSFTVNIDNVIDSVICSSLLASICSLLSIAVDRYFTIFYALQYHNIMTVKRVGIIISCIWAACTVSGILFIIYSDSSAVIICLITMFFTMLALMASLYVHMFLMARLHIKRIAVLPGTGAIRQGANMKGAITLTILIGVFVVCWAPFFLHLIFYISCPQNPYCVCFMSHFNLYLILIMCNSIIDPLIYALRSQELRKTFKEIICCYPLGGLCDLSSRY
Sequence of Beta Lactamase (Q932Y6 whole entry): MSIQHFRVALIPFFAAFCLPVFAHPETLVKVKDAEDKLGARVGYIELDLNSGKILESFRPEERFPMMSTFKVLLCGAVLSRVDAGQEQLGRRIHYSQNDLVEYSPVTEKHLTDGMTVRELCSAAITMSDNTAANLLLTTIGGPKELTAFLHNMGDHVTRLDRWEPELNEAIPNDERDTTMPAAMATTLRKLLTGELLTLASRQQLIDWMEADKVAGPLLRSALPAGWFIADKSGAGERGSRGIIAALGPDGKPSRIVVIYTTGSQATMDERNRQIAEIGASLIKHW

**Q.** What does the source list for COc1ccc(-n2nnnc2S(=O)(=O)CC(=O)N2CCCCC2)cc1?
**A.** AC50 [1]: 13 µM (active); AC50 [2]: 3.45 µM (active); AC50 [3]: 16.8 µM (active); AC50 [4]: 7.63 µM (active); AC50 [5]: 7.53 µM (active); AC50 [6]: 8.89 µM (active); IC50 (Melanocortin receptor 4): > 64.5 µM (inactive); IC50 [7]: > 80 µM (inactive); IC50 [8]: > 64.5 µM (inactive); AC50 [9]: 5.44 µM (active); CC50 [10]: 11.3 µM (active); EC50 [11]: 10.9 µM (active); EC50 [12]: 10.6 µM (active); AC50 [13]: 13.6 µM (active)

**Q.** For Nc1c(C(=O)c2cccs2)sc2nsc(SCCN3CCCCC3)c12, which EC50 [14] is on record?
**A.** > 99 µM (inactive)

**Q.** What about the IC50 (CHO) of the same compound?
**A.** > 49.8 µM (inactive)

**Q.** And the CC50 [15]?
**A.** > 40 µM (active)

**Q.** What about the EC50 [16] of the same compound?
**A.** 12 µM (active)

**Q.** What about the IC50 (Beta Lactamase) of the same compound?
**A.** 9.89 µM (active)

**Q.** For COc1ccc2nc(NC(=O)CCNC(=O)c3ccccc3Cl)sc2c1, which AC50 [17] is on record?
**A.** 8.01 µM (active)

**Q.** And the AC50 [18]?
**A.** 1.53 µM (active)

**Q.** Which IC50 (Genome polyprotein) does the source give for CCc1ccc(N2C(=O)c3sc4nnc(-c5ccccc5)c(=O)n4c3C2=O)cc1 here?
**A.** 48.5 µM (active)

**Q.** What about the CC50 (Vero) of the same compound?
**A.** > 40 µM (active)

**Q.** For COc1cccc(-c2sc3ccc(OC)cc3c2-c2ccc(OCCN3CCCCC3)cc2)c1, which EC50 [19] is on record?
**A.** 11.2 µM (active)

**Q.** With CC(C)CN(C(=O)COC(=O)c1cc2ccccc2cc1O)c1c(N)n(Cc2ccccc2)c(=O)[nH]c1=O as the compound, how does the AC50 (DNA topoisomerase) read?
**A.** 6.2 µM (active)

**Q.** With O=C(CCCCCn1c(=O)[nH]c2ccsc2c1=O)NCc1ccc(F)cc1 as the compound, how does the EC50 [20] read?
**A.** 77.6 nM (active)
